Values quoted from earlier work in patent publication US20070117764A1, “Compositions comprising macrolide t-cell immunomodulators or immunosuppressants in combination with antibacterials” (priority 2003, published 2007).

System: allogeneic kidney transplantation
Settings: rat, oral administration, suppression of systemic immune response

C=CC[C@@H]1/C=C(\C)C[C@H](C)C[C@H](OC)[C@H]2O[C@@](O)(C(=O)C(=O)N3CCCC[C@H]3C(=O)O[C@H](/C(C)=C/[C@@H]3CC[C@@H](O)[C@H](OC)C3)[C@H](C)[C@@H](O)CC1=O)[C@H](C)C[C@@H]2OC [tacrolimus]
minimum effective dose (MED): 14 mg/kg
